Experiments:
[1] = biological target: T1, MAGL (Homo sapiens, UniProt Q99685); test: In vitro competitive activity-based protein profiling, MAGL, human; details: for inhibition at 1 µM: read-out: MAGL % inh. 1 μM (human)
T1 sequence (Q99685 1-303): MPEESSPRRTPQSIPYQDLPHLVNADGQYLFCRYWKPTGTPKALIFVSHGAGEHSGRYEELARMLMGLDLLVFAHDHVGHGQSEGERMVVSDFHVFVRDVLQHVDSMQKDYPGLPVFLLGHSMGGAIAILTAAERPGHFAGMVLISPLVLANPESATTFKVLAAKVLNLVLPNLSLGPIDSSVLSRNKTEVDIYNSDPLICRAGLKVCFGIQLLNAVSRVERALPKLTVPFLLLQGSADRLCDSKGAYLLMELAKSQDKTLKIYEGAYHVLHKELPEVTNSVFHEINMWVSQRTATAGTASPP

[2] = biological target: T2, MAGL (Mus musculus, UniProt O35678); test: In vitro competitive activity-based protein profiling, MAGL, mouse; details: read-out: MAGL % inh. 1 μM (mouse)
T2 sequence (O35678 1-303): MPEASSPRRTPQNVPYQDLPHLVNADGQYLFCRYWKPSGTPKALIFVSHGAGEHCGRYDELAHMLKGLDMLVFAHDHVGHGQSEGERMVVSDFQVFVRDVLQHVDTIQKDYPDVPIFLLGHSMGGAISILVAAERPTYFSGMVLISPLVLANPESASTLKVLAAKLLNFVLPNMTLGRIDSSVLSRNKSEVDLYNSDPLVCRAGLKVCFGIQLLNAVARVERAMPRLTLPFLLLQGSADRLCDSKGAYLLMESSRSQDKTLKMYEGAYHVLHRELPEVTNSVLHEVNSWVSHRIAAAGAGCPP

SMILES	inhibition at 1 µM [1]	inhibition at 1 µM [2]	IC50 [1]	inhibition at 10 µM ([1]; read-out: MAGL % inh. (human) at 10 uM)
Cc1cc(-c2cccc(S(C)(=O)=O)c2)ccc1CN1CCN(C(=O)n2ccc(C(=O)O)n2)[C@H](C)C1 [Example 386, (R)-1-(2-methyl-4-((3-methyl-3′-(methylsulfonyl)-[1,1′-biphenyl]-4-yl)methyl)piperazine-1-carbonyl)-1H-pyrazole-3-carboxylic acid]	50 to 75%	> 75%		
O=C(O)c1ccn(C(=O)N2CCC3(CCN(Cc4cccc(Cl)c4)C3)CC2)n1 [Example 227, 1-(2-(3-chlorobenzyl)-2,8-diazaspiro[4.5]decane-8-carbonyl)-1H-pyrazole-3-carboxylic acid]	> 75%	25 to 50%		
O=C(O)c1nn(C(=O)N2C[C@H]3C[C@H](OCc4cc(F)cc(Cl)c4)C[C@H]3C2)cc1Cl [Example 296, 4-chloro-1-(trans-5-((3-chloro-5-fluorobenzyl)oxy)octahydrocyclopenta [c]pyrrole-2-carbonyl)-1H-pyrazole-3-carboxylic acid]	> 75%	> 75%		
CC(C)(O)COc1cccc(O[C@H]2C[C@@H]3CN(C(=O)n4ccc(C(N)=O)n4)C[C@@H]3C2)c1Cl [Example 452, 1-(trans-5-(2-chloro-3-(2-hydroxy-2-methylpropoxy)phenoxy)octahydro-cyclopenta[c]pyrrole-2-carbonyl)-1H-pyrazole-3-carboxamide]	> 75%	> 75%		
O=C(O)c1nn(C(=O)N2CCN(Cc3cc(F)cc(Oc4ccc(Cl)cc4)c3)CC2)cc1Cl [Example 378, 4-chloro-1-(4-(3-(4-chlorophenoxy)-5-fluorobenzyl)piper-azine-1-carbonyl)-1H-pyrazole-3-carboxylic acid]	> 75%	> 75%		
C[C@@H]1CN(Cc2cccc(Oc3ccc(Cl)cc3)c2)CCN1C(=O)n1ccc(C(N)=O)n1 [Example 310, (R)-1-(4-(3-(4-chlorophenoxy)benzyl)-2-methylpiperazine-1-carbonyl)-1H-pyrazole-3-carboxamide]	> 75%	> 75%		
CC(C)(O)COc1cccc(CN2CCN(C(=O)n3ccc(C(N)=O)n3)CC2)c1Cl [Example 37, 1-(4-(2-Chloro-3-(2-hydroxy-2-methylpropoxy)benzyl)piperazine-1-carbonyl)-1H-pyrazole-3-carboxamide]	> 75%	> 75%		
C[C@H]1CN(Cc2ccc(C(F)(F)F)cc2N2CCCC2)CCN1C(=O)n1ccc(C(N)=O)n1 [Example 326, (S)-1-(2-methyl-4-(2-(pyrrolidin-1-yl)-4-(trifluoromethyl)benzyl)piperazine-1-carbonyl)-1H-pyrazole-3-carboxamide]	> 75%	> 75%		
C[C@@H]1CN(Cc2cccc(Oc3ccc(F)cn3)c2)CCN1C(=O)n1ccc(C(=O)O)n1 [Example 295, (R)-1-(4-(3-((5-fluoropyridin-2-yl)oxy)benzyl)-2-methylpiperazine-1-carbonyl)-1H-pyrazole-3-carboxylic acid]	50 to 75%	> 75%		
O=C(O)c1ccn(C(=O)N2C[C@H]3C[C@H](Oc4cccc(N5CCCC5)c4)C[C@H]3C2)n1 [Example 234, 1-(trans-5-(3-(pyrrolidin-1-yl)phenoxy)octa-hydrocyclopenta[c]pyrrole-2-carbonyl)-1H-pyrazole-3-carboxylic acid]	> 75%	> 75%		
NC(=O)c1ccn(C(=O)N2CCC3(CCN(Cc4cc5ccc(C(F)(F)F)cc5s4)C3)CC2)n1 [Example 377, 1-(2-((6-(trifluoromethyl)benzo[b]thiophen-2-yl)methyl)-2,8-diazaspiro[4.5]decane-8-carbonyl)-1H-pyrazole-3-carboxamide]	0 to 25%	0 to 25%		
O=C(O)c1nn(C(=O)N2CCN(Cc3cccc(Oc4cc(C(F)(F)F)ccn4)c3)CC2)cc1C(F)(F)F [Example 414, 4-(trifluoromethyl)-1-(4-(3-((4-(trifluoromethyl)pyridin-2-yl)oxy)benzyl)piper-azine-1-carbonyl)-1H-pyrazole-3-carboxylic acid]	> 75%	> 75%		
O=C(O)c1ccn(C(=O)N2C[C@H]3C[C@H](Oc4cc(Cl)ccc4C(F)(F)F)C[C@H]3C2)n1 [Example 297, 1-(trans-5-(5-chloro-2-(trifluoromethyl)phenoxy)octahydro-cyclopenta[c]pyrrole-2-carbonyl)-1H-pyrazole-3-carboxylic acid]	> 75%	> 75%		
CCOc1cc(CN2CCC3(CCN(C(=O)n4ccc(C(=O)O)n4)CC3)C2)ccc1Cl [Example 21, 1-(2-(4-chloro-3-ethoxybenzyl)-2,8-diazaspiro[4.5]decane-8-carbonyl)-1H-pyrazole-3-carboxylic acid]	25 to 50%	25 to 50%		
NC(=O)c1ccn(C(=O)N2CC3CN(Cc4ccc(C5(O)CCOCC5)cc4C(F)(F)F)CC3C2)n1 (centres unmarked) [Example 396]	> 75%	> 75%		
Cc1cn(C(=O)N2CCC(C)(N(C)Cc3ccc(C(F)(F)F)cc3N3CCCC3)CC2)nc1C(=O)O [Example 398]	> 75%	> 75%		
O=C(O)c1nn(C(=O)N2CCN(Cc3cccc(-c4cncnc4)c3)CC2)cc1Cl [Example 270, 4-chloro-1-(4-(3-(pyrimidin-5-yl)benzyl)piperazine-1-carbonyl)-1H-pyrazole-3-carboxylic acid]	> 75%	> 75%		
O=C(O)c1ccn(C(=O)N2CCN(Cc3ccc(F)c(Oc4ccccc4)c3)CC2)n1 [Example 263, 1-(4-(4-fluoro-3-phenoxybenzyl)pi-perazine-1-carbonyl)-1H-pyrazole-3-carboxylic acid]	> 75%	> 75%		
Cc1cc(-c2ccccc2)ccc1CN1CCN(C(=O)n2ccc(C(=O)O)n2)[C@@H](C)C1 [Example 246, (S)-1-(2-methyl-4-((3-methyl-[1,1′-biphenyl]-4-yl)methyl)piperazine-1-carbonyl)-1H-pyrazole-3-carboxylic acid]	> 75%	> 75%	100 to 1000 nM	
COc1cc(-c2ccccc2)ccc1CN1CCN(C(=O)n2ccc(C(=O)O)n2)[C@H](C)C1 [Example 283, (R)-1-(4-((3-methoxy-[1,1′-biphenyl]-4-yl)methyl)-2-methylpiperazine-1-carbonyl)-1H-pyrazole-3-carboxylic acid]	> 75%	> 75%		
O=C(O)c1ccn(C(=O)N2C[C@H]3C[C@@H](OCc4cccc(C(F)(F)F)c4)C[C@H]3C2)n1 [Example 255, 1-(trans-5-((3-(trifluoromethyl)benzyl)oxy)octa-hydrocyclopenta[c]pyrrole-2-carbonyl)-1H-pyrazole-3-carboxylic acid]	> 75%	> 75%	100 to 1000 nM	
O=C(O)c1ccn(C(=O)N2CCN(Cc3ccc(C(F)(F)F)cc3N3CC[C@H](O)C3)CC2)n1 [Example 332, (S)-1-(4-(2-(3-hydroxypyrrolidin-1-yl)-4-(trifluoromethyl)benzyl)piperazine-1-carbonyl)-1H-pyrazole-3-carboxylic acid]	> 75%	> 75%		
O=C(O)c1ccn(C(=O)N2CCC3(CC2)CN(Cc2cc(Cl)ccc2C(F)(F)F)C3)n1 [Example 313, 1-(2-(5-chloro-2-(trifluoromethyl)benzyl)-2,7-diazaspiro[3.5]non-ane-7-carbonyl)-1H-pyrazole-3-carboxylic acid]	> 75%	> 75%		
O=C(O)c1ccn(C(=O)N2C[C@H]3CN(Cc4ccc(Cl)c(-c5nccs5)c4)C[C@H]3C2)n1 [Example 315, 1-((3aR,6aS)-5-(4-chloro-3-(thiazol-2-yl)benzyl)octa-hydropyrrolo[3,4-c]pyrrole-2-carbonyl)-1H-pyrazole-3-carboxylic acid]	> 75%	> 75%		
O=C(O)c1ccn(C(=O)N2CCN(Cc3cc(F)cc(Oc4ccccc4Cl)c3)CC2)n1 [Example 319, 1-(4-(3-(2-chlorophenoxy)-5-fluorobenzyl)piper-azine-1-carbonyl)-1H-pyrazole-3-carboxylic acid]	> 75%	> 75%		
O=C(O)c1ccn(C(=O)N2CCN(Cc3cccc(Oc4cccnn4)c3)CC2)n1 [Example 229, 1-(4-(3-(pyridazin-3-yloxy)benzyl)piper-azine-1-carbonyl)-1H-pyrazole-3-carboxylic acid]	25 to 50%	0 to 25%		
O=C(O)c1ccn(C(=O)N2CCC3(CCN(Cc4cccc(-c5cncnc5)c4)C3)CC2)n1 [Example 302, 1-(2-(3-(pyrimidin-5-yl)benzyl)-2,8-diazaspiro[4.5]decane-8-carbonyl)-1H-pyrazole-3-carboxylic acid]		0 to 25%		> 75%
